Source: patent publication US10597352B1, “Stable alkyl benzidine composition and methods of making and using same” (OneStep Technologies Inc., priority 2019, dated 2020)

Assay: Stability evaluation of alkyl benzidine solutions on storage at a stated temperature (method not described)
Assay type: physicochemical
Description: In one example, a solution of TMB prepared in polyethylene glycol in accordance with Example 1.0 was evaluated for stability. It was determined that the solution was stable at room temperature (i.e. 22° C.) for a period of at least two years. It was further determined that the solution was stable at 37° C. for a period of at least two months.

stability of compositions produced with the tetraalkyl benzidine compound (in words): stable compositions
Compound: Cc1cc(-c2cc(C)c(NCCCS(=O)(=O)O)c(C)c2)cc(C)c1N [N-(3-sulfopropyl)-3,3′,5,5′-tetramethylbenzidine]
